According to ChEMBL document CHEMBL2016468, “Development of rationally designed DNA N6 adenine methyltransferase inhibitors” (Bioorg Med Chem Lett, 2012):

Assay: Inhibition of Yersinia pestis Dam using oligonucleotide 1 as substrate after 2000 to 3000 sec by micro plate reader based real-time break-light assay

Compound	IC50 [µM]
Nc1ncnc2c1ncn2[C@@H]1O[C@H](CNCC[C@H](N)C(=O)O)[C@@H](O)[C@H]1O	84
Nc1ncnc2c1ncn2[C@@H]1O[C@H](CSCC[C@H](N)C(=O)O)[C@@H](O)[C@H]1O [S-ADENOSYLHOMOCYSTEINE]	11.9
Nc1ncnc2c1ncn2[C@@H]1O[C@H](CN(CCc2cccc3[nH]ccc23)CC[C@H](N)C(=O)O)[C@@H](O)[C@H]1O	31.3
Nc1ncnc2c1ncn2[C@@H]1O[C@H](CN(CC[C@H](N)C(=O)O)Cc2ccccn2)[C@@H](O)[C@H]1O	> 250
Nc1ncnc2c1ncn2[C@@H]1O[C@H](CN(CCc2csc3ccccc23)CC[C@H](N)C(=O)O)[C@@H](O)[C@H]1O	28.9
Nc1ncnc2c1ncn2[C@@H]1O[C@H](CN(CCCc2c[nH]c3ccccc23)CC[C@H](N)C(=O)O)[C@@H](O)[C@H]1O	13.1
Nc1ncnc2c1ncn2[C@@H]1O[C@H](CN(CCc2c[nH]c3ccccc23)CC[C@H](N)C(=O)O)[C@@H](O)[C@H]1O	12.3
Nc1ncnc2c1ncn2[C@@H]1O[C@H](CN(CCCc2ccccn2)CC[C@H](N)C(=O)O)[C@@H](O)[C@H]1O	> 250
Nc1ncnc2c1ncn2[C@@H]1O[C@H](CN(CCc2coc3ccccc23)CC[C@H](N)C(=O)O)[C@@H](O)[C@H]1O	39.2
